In PMC11017252, “Copper(II) Complexes with 2,2′:6′,2″-Terpyridine Derivatives Displaying Dimeric Dichloro−μ–Bridged Crystal Structure: Biological Activities from 2D and 3D Tumor Spheroids to In Vivo Models” (Journal of Medicinal Chemistry, 2024):

Assays:
[1] = tested on: normal human primary dermal fibroblasts; test: MTS cell viability assay, normal fibroblasts; assay type: cell-based; conditions: 48 h of exposure
Procedure: (§1) The in vitro cytotoxic potential of Cu(II) complexes in tumor and healthy cells was assessed using the MTS assay, a colorimetric method that allows the quantification of viable cells in culture.[46]
Cell culture and maintenance
(§2) The cancer cell lines HCT116 (colorectal carcinoma) and A2780 (ovarian carcinoma) were obtained
(§3) from the American Type Culture Collection (ATCC®, Manassas, VA, USA), as well as the normal
human primary dermal fibroblasts.
(§4) Apart from the A2780 cell line, which was cultured in Roswell Park Memorial Institute (RPMI)
(§5) medium, all cells were cultured in Dulbecco’s modified Eagle medium (DMEM). Both media were
(§6) supplemented with 10% (v/v) fetal bovine serum (FBS) and 1% (v/v) of a Pen/Strep
(§7) (Penicillin/Streptomycin) solution. To maintain the resistant phenotype of the HCT116DoxR cell line,
(§8) the medium was additionally supplemented with 3.6 μM Dox4. All media and supplements were
(§9) purchased from Thermo Fischer Scientific (Waltham, MA, USA).
(§10) Cells were maintained in 25 cm2 T-flasks (T25) in a humidified atmosphere at 37 °C and 5% (v/v) CO
(§11) (SANYO CO2 Incubator, Electric Biomedical Co., Osaka, Japan).
(§12) The effect of Cu(II) complexes on cell viability was studied in HCT116, HCT116DoxR, and A2780
(§13) cancer cell lines and in normal human primary fibroblasts. Cells were seeded in a density of 0.75×105
(§14) cells/mL into 96-well plates and incubated in a humidified atmosphere at 37 °C and 5% (v/v) CO2 for
(§15) 24 h. After incubation, complexes were weighed, immediately solubilized in 100% (v/v) DMSO and
(§16) diluted for the final concentration with cell culture medium. The medium in each well was replaced by
(§17) a solution of fresh medium containing each Cu(II) complex (concentrations ranging from 0.01 μM to
(§18) Following a second incubation period of 48 h in the same conditions, the supernatant of each well was
(§19) replaced by a solution containing MTS reagent (3-(4,5-dimethylthiazol-2-yl)-5-(3-
(§20) Non-Radioactive Cell Proliferation Assay Kit (Promega, Madison, WI, EUA) for a 30 minutes
(§21) incubation. The percentage of viable cells was indirectly determined by the spectrophotometric
(§22) quantification at 490 nm in a microplate reader, Tecan Infinite M200 (Tecan, Männedorf, Switzerland)
(§23) of formazan production, resultant from the reduction of the MTS reagent by mitochondrial

[2] = tested on: HCT116DoxR (Dox-resistant colorectal carcinoma cell line); test: MTS cell viability assay, 2D culture, HCT116DoxR; conditions: read-out: IC50 (μM) HCT116DoxR, 48 h of exposure
Procedure: as §1
In this regard, cell viability was performed for each of the ligands on HCT116DoxR and fibroblasts.
Cell culture and maintenance
as §2, §3
human primary dermal fibroblasts.
as §4, §5, §6, §7, §8, §9, §10, §11, §12, §13, §14, §15, §16, §17
(§24) as negative and positive controls, respectively.
as §18, §19
(§25) carboxymethoxyphenyl)-2-(4-sulfophenyl)-2H-tetrazolium) provided by the CellTiter 96® AQueous
as §20, §21, §22, §23
(§26) dehydrogenases. Since these enzymes are only active in viable cells, the absorbance value measured is
(§27) directly proportional to the percentage of viable cells in culture5.

pUC18 plasmid DNA = test: pDNA cleavage in vitro (agarose gel electrophoresis); assay type: biochemical, E. coli; conditions: for effect of control reagent alone on pUC18: TBHP 20 μM, NaN3 50 μM
[3] = tested on: HCT116 (colorectal carcinoma cell line); test: MTS cell viability assay, 2D culture, HCT116; assay type: cell-based, human; conditions: 48 h of exposure
Procedure: as §1
Cell culture and maintenance
as §2, §3
human primary dermal fibroblasts.
as §4, §5, §6, §7, §8, §9, §10, §11, §12, §13, §14, §15, §16, §17, §24, §18, §19, §25, §20, §21, §22, §23, §26, §27
(§28) By analysing the cell viability as a function of log10(concentration) using Prism 8 (GraphPad
(§29) in cell viability) of each complex in the respective cell line at 48 h. The selective index (SI) for each
(§30) complex was also determined by dividing the IC50 of human fibroblasts by the respective IC50 in each
(§31) cancer cell line (allowing us to understand how much active a complex is in tumor versus normal cell).

[4] = tested on: A2780 (ovarian carcinoma cell line); test: MTS cell viability assay, 2D culture, A2780; assay type: cell-based, human; conditions: 48 h of exposure
Procedure: as §1
Cell culture and maintenance
as §2, §3
human primary dermal fibroblasts.
as §4, §5, §6, §7, §8, §9, §10, §11, §12, §13, §14, §15, §16, §17, §24, §18, §19, §25, §20, §21, §22, §23, §26, §27, §28, §29, §30, §31

HCT116DoxR spheroids = test: MTS cell viability assay in 3D HCT116DoxR spheroids; assay type: cell-based, human; conditions: 6-day-old spheroids, 48 h of exposure
BAX and BCL-2 = BAX and BCL-2 protein expression by Western Blot; assay type: cell-based, human; conditions: HCT116DoxR, 48 h, IC50; normalized to β-actin
EB–ct-DNA adduct = test: Ethidium bromide displacement fluorescence assay; assay type: binding, calf; conditions: PBS
chicken embryos = test: Ex-ovo chick chorioallantoic membrane (CAM) assay; assay type: in vivo; conditions: IC50, vs DMSO control
HCT116DoxR cells [5] = test: Cell cycle progression (PI, flow cytometry)
Source text: Therefore, we have assessed the cytostatic potential of complexes 2, 3, 5, and 7, and their ability to interfere with the progression of the cell cycle using the fluorescent marker PI. Since this marker can intercalate with DNA, the measurement of the fluorescence emitted by flow cytometry makes it possible to assess the DNA content at each stage of the cell cycle (G0/G1, S, and G2/M).[67] To ensure that all the cells were in the same phase before their exposure to the complexes, a double block was carried out with thymidine, a DNA synthesis inhibitor.[67]
HCT116DoxR cell line was seeded in 6-well plates in a density of 1×10^5 cells/mL and incubated for
24 h. Afterwards, the culture medium was replaced by medium with IC50 concentrations of different
HCT116DoxR cell line was seeded in 6-well plates in a density of 1×10^5 cells/mL, incubated for 8 h in
a humidified atmosphere at 37 °C and 5% (v/v) CO2, and later synchronized in early S-phase with a 2
mM thymidine solution (Merck, Germany) for a 16 h period. Later, medium with thymidine was
replaced by fresh media and, after 8 h a second block with thymidine was performed in the same
concentrations of Cu(II) complexes. 0.1% (v/v) DMSO was used as the vehicle control while 5 μM
After treatment, cells were incubated for 9, 12,

HCT116DoxR cells [6] = test: Annexin V-FITC/PI apoptosis assay by flow cytometry; conditions: 48 h
Procedure: To evaluate the cell death mechanism involved in the cytotoxic effect of the selected complexes, a double-staining with Annexin V-FITC and PI was performed. […] The use of Annexin V conjugated with the fluorophore FITC allows the quantification of this interaction and subsequent identification of cells in apoptosis by flow cytometry. Furthermore, PI is a fluorophore that can intercalate with DNA and that can only enter the cell when the membrane is either compromised or ruptured, making it possible to identify cells undergoing late apoptosis and necrosis. Therefore, the double staining makes it possible to distinguish between viable cells (FITC^–; IP^–), those undergoing initial apoptosis (FITC^+; IP^–), those undergoing late apoptosis (FITC^+; IP^+), and those undergoing necrosis (FITC^–; IP^+).[55],[58]
Evaluation of apoptosis induction in HCT116DoxR cell line by flow cytometry The induction of apoptosis in HCT116DoxR cell line was evaluated by flow cytometry, using the
Annexin V-FITC Apoptosis Detection Kit (Thermo Fisher Scientific, Waltham, MA, USA). Cells
were seeded in 6-well plates at a cell density of 1×10^5 cells/mL and incubated for 24 h. Afterwards,
culture medium was replaced by medium with different Cu(II) complexes at their IC50 concentrations.
After 48 h of incubation, cells were washed with PBS 1x, detached from each well with TrypLETM
Express and washed again with PBS 1x. Cells were then resuspended in 1x annexin-binding buffer and
incubated at rt for 15 min with Annexin V-FITC and 100 μg/mL PI.
All samples were analysed by an Attune® Acoustic Focusing Flow Cytometer (Thermo Fischer
Scientific, Waltham, MA, USA) and the results were processed with Attune® Cytometric software

[7] = complexes at IC50, Dox 6 μM, cisplatin 5 μM

Compound	IC50 [1] [µM]	IC50 [2] [µM]	IC50 [3] [µM]	IC50 [4] [µM]	other results
c1ccc(-c2cc(-c3cccc4ccccc34)cc(-c3ccccn3)n2)nc1 [L1]	> 50	~0.2	–	–	–
c1ccc(-c2cc(-c3ccnc4ccccc34)cc(-c3ccccn3)n2)nc1 [L2]	> 50	0.4 ± 0.02	–	–	–
COc1ccc2c(OC)ccc(-c3cc(-c4ccccn4)nc(-c4ccccn4)c3)c2c1 [L4]	13.1 ± 3.18	0.4 ± 0.25	–	–	–
c1ccc(-c2cc(-c3ccco3)cc(-c3ccccn3)n2)nc1 [L5]	> 50	0.6 ± 0.02	–	–	–
c1ccc(-c2cc(-c3ccccn3)nc(-c3ccccn3)c2)nc1 [L7]	~50	0.5 ± 0.06	–	–	–
CCn1c2ccccc2c2cc(-c3cc(-c4ccccn4)nc(-c4ccccn4)c3)ccc21 [L8]	~10	0.4 ± 0.04	–	–	–
[N-]=[N+]=[N-].[Na+] [NaN3, sodium azide, reference compound]	–	–	–	–	effect of control reagent alone on pUC18 (pUC18 plasmid DNA; 24 h): no effect
CC(C)(C)OO [TBHP, Tert-Butyl hydroperoxide, reference compound]	–	–	–	–	effect of control reagent alone on pUC18 (pUC18 plasmid DNA; 24 h): unable to induce pUC18 cleavage
F[P-](F)(F)(F)(F)F.F[P-](F)(F)(F)(F)F.[Cl][Cu].[Cl][Cu].c1ccc(-c2cc(-c3cccc4ccccc34)cc(-c3ccccn3)n2)nc1.c1ccc(-c2cc(-c3cccc4ccccc34)cc(-c3ccccn3)n2)nc1 [complex 1, [Cu2Cl2(4′-(1-Naphthyl)-terpy)2](PF6)2]	3.04 ± 0.02	0.12 ± 0.01	0.16 ± 0.01	0.8 ± 0.05	–
COc1ccc2c(OC)ccc(-c3cc(-c4ccccn4)nc(-c4ccccn4)c3)c2c1.COc1ccc2c(OC)ccc(-c3cc(-c4ccccn4)nc(-c4ccccn4)c3)c2c1.F[P-](F)(F)(F)(F)F.F[P-](F)(F)(F)(F)F.[Cl][Cu].[Cl][Cu] [complex 4, [Cu2Cl2(4′-(4,7-Dimethoxy-1-naphthyl)-terpy)2](PF6)2]	2.64 ± 0.1	0.16 ± 0.01	0.15 ± 0.04	0.49 ± 0.1	–
F[P-](F)(F)(F)(F)F.F[P-](F)(F)(F)(F)F.[Cl][Cu].[Cl][Cu].c1ccc(-c2cc(-c3ccccn3)nc(-c3ccccn3)c2)nc1.c1ccc(-c2cc(-c3ccccn3)nc(-c3ccccn3)c2)nc1 [complex 7, [Cu2Cl2(4′-(2-Pyridynyl)-terpy)2](PF6)2]	16.08 ± 0.05	0.19 ± 0.01	0.23 ± 0.01	1.13 ± 0.2	IC50 (HCT116DoxR spheroids): 30.48 ± 0.19 µM; expression of BAX compared to the DMSO control (BAX and BCL-2): decreases; expression of BCL-2 compared to the DMSO control (BAX and BCL-2): increases; concentration at which the interaction with pDNA reaches saturation (pUC18 plasmid DNA; 100 ng pUC18, 24 h): 100 μM; pDNA cleavage mode (pUC18 plasmid DNA; 100 ng pUC18, 24 h, 5–100 μM complex): single and double strands; effect of NaN3 (singlet oxygen scavenger) on pDNA cleavage by the complex (pUC18 plasmid DNA; 24 h, 50 μM complex + 50 μM NaN3): almost completely reversed; apparent binding constant (Kapp) (EB–ct-DNA adduct; EB displacement, KEB = 1 × 10^7 M^–1): 1.16 × 10^6 M^–1; Stern–Volmer quenching constant KSV (EB–ct-DNA adduct; EB–ct-DNA, 0–40 μM complex): 2320 M⁻¹; formation of new blood vessels after 24 h (chicken embryos; 24 h): no pro- or antiangiogenic effect; formation of new blood vessels after 48 h (chicken embryos; 48 h): antiangiogenic effect; cell cycle progression after 12 h (HCT116DoxR cells [5]; 12 h, IC50, thymidine double block): delays cell cycle progression in the G2/M phase; cell cycle progression after 18 h (HCT116DoxR cells [5]; 18 h, IC50, thymidine double block): delay in cycle progression in the G0/G1 phase; cell cycle progression after 24 h (HCT116DoxR cells [5]; 24 h, complexes at IC50, cisplatin 5 μM): delay the cycle in the G2/M phase; cells (%) early apoptosis (HCT116DoxR cells [6]; [7]): 37.4 ± 7.4%; cells (%) late apoptosis (HCT116DoxR cells [6]; [7]): 9.0 ± 2.6%; cells (%) necrosis (HCT116DoxR cells [6]; [7]): 1.1 ± 0.5%; cells (%) viable (HCT116DoxR cells [6]; [7]): 52.5 ± 6.7%; percentage of apoptosis (early + late) (HCT116DoxR cells [6]; [7]): ~46%; fold increase in apoptotic cells, normalized to DMSO (HCT116DoxR cells [6]; complexes at IC50, cisplatin 5 μM): 5 fold
CCn1c2ccccc2c2cc(-c3cc(-c4ccccn4)nc(-c4ccccn4)c3)ccc21.CCn1c2ccccc2c2cc(-c3cc(-c4ccccn4)nc(-c4ccccn4)c3)ccc21.F[P-](F)(F)(F)(F)F.F[P-](F)(F)(F)(F)F.[Cl][Cu].[Cl][Cu] [complex 8, [Cu2Cl2(4′-(N-Ethyl-9H-carbazol-3-yl)-terpy)2](PF6)2]	7.36 ± 0.04	0.19 ± 0.06	0.1 ± 0.03	0.37 ± 0.06	–
